Measurements taken from US20230381774A1, “MICROFLUDIC LAB-ON-CHIP DEVICE, MATRIX, SMALL MOLECULES AND THREE-DIMENSIONAL SPHEROIDS FOR CELL REPROGRAMMING” (The Regents of the University of California, priority 2022, published 2023).

Columns and labels:
[1] = tested on: primary human neonatal dermal fibroblasts (hNDFs); test: Spatial iN reprogramming in 3D spheroids (Tuj1 staining); assay type: cell-based; settings: 3 days of reprogramming, relative to no-treatment controls
From the text: For the reduction to practice, primary human neonatal dermal fibroblasts (hNDFs) were transduced with doxycycline (Dox)-inducible lentiviral vectors for the BAMN factors. After Dox induction in monolayer to ensure unbiased activation of the transgenes, hNDFs were either plated onto Matrigel-coated cover slips as 2D controls or centrifuged in microwells to form 3D aggregates, or “spheroids” (FIG. 9A). The expression of neuron-specific β-tubulin III (Tuj1) was used as a marker of neuronal fate, as is convention. Tuj1 expression began earlier in spheroids than in 2D culture, appearing as early as day 2 (two days after Dox induction and one day after spheroid formation) (FIG. 9BC). To evaluate relative reprogramming efficiency, spheroids were replated onto Matrigel-coated cover slips after three days without enzymatic disaggregation.
Direct reprogramming involves both disruption of the existing regulatory network (generally early on) and establishment of another. The initial nonspecific disruption is often mechanistically associated with cell cycle regulation, cell senescence, chromatin inactivation, and genome stability. To assess the impact of mechanobiological changes associated with spheroid culture on direct reprogramming, primary human neonatal dermal fibroblasts (hNDFs) were transduced with doxycycline (dox)-inducible lentiviral vectors for the BAMN factors. […]

[2] = tested on: H3K27me3; test: Western blotting of H3K27me3; assay type: cell-based, mouse
Description: Equal amounts of total protein (50 μg) from each sample were separated in a 10% SDS-PAGE gel and transferred to a PVDF membrane at 120 V for 2 hours at room temperature. The blot was blocked with 5% nonfat dry milk suspended in 1×TBS (25 mM Tris, 137 mM NaCl, and 2.7 mM KCl) for 1 hour. Membranes were incubated sequentially with primary antibodies and secondary antibodies. Bands were scanned using a densitometer (Bio-Rad) and quantified using the Quantity One 4.6.3 software (Bio-Rad).

[3] = tested on: histone acetyltransferase (HAT); test: HAT activity in fibroblasts on PAAm gels of varying stiffness; assay type: cell-based, mouse; settings: glass and gels of various stiffness, inhibitor for 24 hours
From the text: FIG. 16. Matrix stiffness modulates histone acetyltransferase (HAT) activity and histone acetylation. (a) Immunofluorescent images of AcH3 in non-transduced fibroblasts cultured on glass and PAAm gels of various stiffness for 2 days. Scale bar, 10 μm. (b) Quantification of AcH3 intensity in cells cultured on glass and PAAm gels of various stiffness (based on experiments in a) (n>40). […] (e) Volcano plot showing differential accessible regions. Red dots indicate regions with increased chromatin accessibility and blue dots regions with decreased accessibility. (f) Heatmap representation of differentially accessible regions that overlap with Ascl1 ChIP-seq peaks (GSE43916: SRX323557). Each row represents a differential region; each column is one biological replicate of the indicated condition. (g) Quantification of HAT activity in fibroblasts cultured on glass and PAAm gels of various stiffness for 2 days, as determined using the Epigenase HAT activity kit (n=6). (h) Quantification of HAT activity in fibroblasts cultured on glass and PA gels of various stiffness for 1 day followed by treatment with vehicle control (DMSO) or a HAT inhibitor (anacardic acid, AA) for 24 hours (n=4). […] In b-i, statistical significance was determined by a one-way ANOVA and Tukey's multiple comparison test (N.S.: Not significant., *p<0.05, **p<0.01, ***p<0.001). […]

[4] = tested on: BAM-transduced fibroblasts; test: iN reprogramming on PAAm gels of varying stiffness; assay type: cell-based, mouse; settings: pre-treated for 24 hours before adding Dox
From the text: To determine the role of matrix stiffness on iN reprogramming, adult mouse fibroblasts were transduced with doxycycline-inducible lentiviruses containing the three reprogramming factors Ascl1, Brn2 and Myt1l (BAM), and then seeded onto polyacrylamide (PAAm) gels of various stiffness (40 kPa, 20 kPa, and 1 kPa) coated with fibronectin. Glass coverslips coated with the same ECM protein were used as a rigid glass surface control (FIG. 15a). As shown in FIG. 15b-c, both the cell area and nuclear volume of fibroblasts decreased as the stiffness of the PAAm gel decreased. […] After 7 days, cultures were fixed and immunostained for neuronal marker, neuron-specific class III β-tubulin (Tubb3) in order to identify iN cells and determine the reprogramming efficiency (FIG. 15a). […] To determine whether matrix stiffness could modulate the activation of endogenous Ascl1, fibroblasts were transduced with an Ascl1 promoter driven-GFP construct and reprogrammed for 2 days.

COc1cc(-c2cc(-c3cccc(O)c3)cnc2N)cc(OC)c1OC [K02288]
spatial Tuj1+ reprogramming patterns, inhibitor alone [1]: did not affect spatial Tuj1+ reprogramming patterns

CS(=O)(=O)c1ccc(-c2cnc(NCc3ccco3)n3cnnc23)cc1 [EED226]
H3K27me3 level [2]: inhibited

CCCCCCCCCCCCCCCc1cccc(O)c1C(=O)O [anacardic acid]
stiffness-dependent HAT activity under HAT inhibitor [3]: inhibited the biphasic enhancement of HAT activity and the reprogramming efficiency
stiffness-dependent reprogramming efficiency under HAT inhibitor [4]: inhibited the biphasic enhancement of HAT activity and the reprogramming efficiency
